In test [1] the test system is mitochondrial Complex I. Kind of test: Metformin inhibition of mitochondrial respiration (respirometry, metformin titrated). In kind it is biochemical. The conditions noted are these: liver mitochondria from WT and Mfn1 LKO mice, malate, glutamate, ADP.
Method: Freshly extracted mitochondria from WT and Mfn1LKO mice were homogenized in respiration medium and 2 mg of tissue were used for respirometry analyses. In them, complex I activity was stimulated by the addition of malate and glutamate. Then, ADP was added to achieve maximal coupled respiration and metformin was subsequently titrated.
Freshly extracted mitochondria from WT and Mfn1 LKO mice were resuspended in respiration medium and 100 μg of protein were used for respirometry analyses. Complex I activity was stimulated by the addition of malate and glutamate. Then, ADP was added to achieve maximal coupled respiration and metformin was subsequently titrated.
Test [2] can be described thus: Hypoglycemic effect of metformin in high-fat diet fed control and Mfn1LKO mice (blood glucose). In kind it is in vivo. The settings on record: metformin 125 mg/kg injected after overnight fast; 8 weeks high-fat diet; Mfn1LKO vs control mice. An excerpt:
12 week old Control and Mfn1 LKO mice were fed for 8 weeks with a high-fat diet (D12492, Research Diets Inc., USA).

Test [3] concerns AMPK. Put plainly: AMPK activation in liver after metformin injection (western blot of markers CRTC2, elF2alpha, GAPDH). In kind it is in vivo. The conditions noted are these: metformin 125 mg/kg; livers taken 90 minutes later; high-fat diet; Mfn1 LKO vs control mice. The protocol: 12 week old Control and Mfn1 LKO mice were fed for 8 weeks with a high-fat diet (D12492, Research Diets Inc., USA). Then, mice were fasted overnight and injected with either saline (as vehicle) or metformin (125 mg/kg). Mice were sacrificed 90 minutes later and livers were immediately extracted and frozen. Protein extracts were obtained and used for western blot analyses to test the markers of AMPK activation: CRTC2, elF2alpha and GAPDH.
For orientation: In western blotting, separated proteins are transferred to a membrane and probed.

Consider `CN(C)C(=N)N=C(N)N` [metformin, Metformin], for which, in test [1], the “mitochondrial Complex I respiration inhibition” value is “inhibited more in the Mfn1 LKO mice than in the control mice”. In addition, in test [2], the “hypoglycemic effect (blood glucose levels)” value is on record as “enhanced in Mfn1LKO mice”. In addition, the “AMPK activation (markers of AMPK activation)” value in test [3] is “enhanced AMPK activation”.
